The assay has as its target T1, visual cycle isomerase (Mus musculus, UniProt Q91ZQ5).
T1 construct: The recovery of 11-cis-retinal after bleaching can be used to estimate the activity of isomerase in vivo; from tissue; host or cells: eye (RPE) of living CD-1 albino male mice
T1 sequence (Q91ZQ5 1-533): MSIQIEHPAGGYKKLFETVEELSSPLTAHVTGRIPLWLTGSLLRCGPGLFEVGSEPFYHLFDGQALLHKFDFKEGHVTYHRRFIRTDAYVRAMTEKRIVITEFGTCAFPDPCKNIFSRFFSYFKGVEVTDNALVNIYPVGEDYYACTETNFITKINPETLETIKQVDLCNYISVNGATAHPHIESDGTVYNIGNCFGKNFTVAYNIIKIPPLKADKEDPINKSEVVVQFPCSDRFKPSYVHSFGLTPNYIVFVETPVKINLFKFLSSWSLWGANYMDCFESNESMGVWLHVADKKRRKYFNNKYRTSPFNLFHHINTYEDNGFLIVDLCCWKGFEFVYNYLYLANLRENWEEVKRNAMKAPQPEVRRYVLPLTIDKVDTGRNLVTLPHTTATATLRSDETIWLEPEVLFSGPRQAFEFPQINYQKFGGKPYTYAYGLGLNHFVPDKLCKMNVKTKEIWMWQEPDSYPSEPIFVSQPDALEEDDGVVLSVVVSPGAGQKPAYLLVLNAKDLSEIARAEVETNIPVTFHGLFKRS
In words: in vivo murine isomerase assay: recovery of 11-cis-retinal (oxime) after photobleaching. How it is done:
FIG. 1 illustrates isomerase inhibitory activity of the compound of Example 3 (Compound 3). The animals were orally gavaged with 1 mg/kg compound, then “photo-bleached” (5000 Lux white light for 10 minutes) at 4, 24 and 48 hours after dosing, and returned to darkness to allow recovery of the 11-cis-retinal content of the eyes. Mice were sacrificed 2 hours after bleaching, eyes were enucleated, and retinoid content was analyzed by HPLC.
FIG. 2 illustrates concentration-dependent inhibition of isomerase activity by the compound of Example 19 (Compound 19). […] Five animals were included in each treatment group. The error bars correspond to standard error.
A method for determining the effect of a compound on isomerase activity may be performed in vitro as described herein and in the art (Stecher et al., J Biol Chem 274:8577-85 (1999); see also Golczak et al., Proc. Natl. Acad. Sci. USA 102:8162-67 (2005)). Retinal pigment epithelium (RPE) microsome membranes isolated from an animal (such as bovine, porcine, human, for example) may serve as the source of the isomerase. The capability of the amine derivative compounds to inhibit isomerase may also be determined by an in vivo murine isomerase assay. Brief exposure of the eye to intense light (“photobleaching” of the visual pigment or simply “bleaching”) is known to photo-isomerize almost all 11-cis-retinal in the retina. […]

A word on the ED50: it is the dose at which the effect has come halfway, by size or by number of responders. For `CCCC(O)(CCC)CCc1cccc(C(O)CCN)c1` (centres unmarked) [Example 19, 4-(3-(3-amino-1-hydroxypropyl)phenethyl)heptan-4-ol], under “FIG. 2A/2B, dose response”, the “inhibition of 11-cis retinal (oxime) recovery” value is “dose related”. The ED50 (mouse, read-out: ED50 (dose of compound that gives 50% inhibition of 11-cis retinal (oxime) recovery), FIG. 2, five animals per treatment group, estimated from dose response) was approximately 0.651 mg/kg.
